The test system of one assay is Hb-AGE. Particulars: diabetic patients treated for 28 days; WO 93/13421; cited from earlier work.
The test system of assay [1] is advanced glycosylation endproducts. Conditions: U.S. Pat. No. 4,758,583; cited from earlier work.
The target in the next assay is monoclonal antibody BH4. The assay is described as follows: Competition ELISA, inhibition of mAb BH4 binding. Also on record: species or system mouse. The protocol:
(§1) The ability of monoclonal antibodies, mAb 4G9, mAb BH4 and mAb 2G6, raised against KLH non-enzymatically glycated by prolonged incubation with glucose (KLH-AGE), to recognize the disodium 6-(N-carboxymethylamino)caproate was determined.
(§2) Direct ELISA and competition ELISA. For direct ELISA, 6- (N-carboxymethylamino)caproate was coated on microtiter plates, the unbound sites were blocked by incubation with Assay Buffer (25 mM borate, pH 8.0, 150 mM NaCl, 0.01% EDTA and 1% BSA). The plate was washed six times and increasing concentrations of mAb in Assay Buffer were added. […] The unbound antibodies were removed by extensive washing and the bound antibodies were detected by addition of p-nitrophenylphosphate in recording the optical density at 410 nm.
(§3) The competition ELISA was performed by pre-coating microtiter plates with disodium 6-(N-carboxymethylamino)caproate and blocking with Assay Buffer. […] The unbound materials were removed by extensive washing and the bound mAb was detected with alkaline phosphatase labeled anti-mouse antibodies similar to direct ELISA. […]
(§4) Competitive ELISA: Plates coated with BSA-AGE at 10 μg/ml. […] In the case of isothiocyanate the plates are soaked for 15 minutes with varying concentrations of isothiocyanate and the level of binding then measured.
(In an ELISA, binding on a coated surface is turned into a signal by an enzyme label.)

The target of a further assay is monoclonal antibody 2G6. The assay is described as follows: Competition ELISA, inhibition of mAb 2G6 binding. Also on record: species or system mouse. On the procedure:
as §1, §2, §3, §4

The next assay deals with monoclonal antibody 4G9. The assay is described as follows: Competition ELISA, inhibition of mAb 4G9 binding. Details: species or system mouse. The protocol: as §1, §2, §3, §4
The test system of assay [2] is antibodies to advanced glycosylation endproducts. The assay is described as follows: Recognition of compounds by monoclonal antibodies to advanced glycosylation endproducts (direct/competition ELISA). The assay is classed as binding. Particulars: qualitative. The protocol:
as §1
Direct ELISA and competition ELISA. For direct ELISA, 6- (N-carboxymethylamino)caproate was coated on microtiter plates, the unbound sites were blocked by incubation with Assay Buffer (25 mM borate, pH 8.0, 150 mM NaCl, 0.01% EDTA and 1% BSA). The plate was washed six times and increasing concentrations of mAb in Assay Buffer were added. After this incubation, the plate was again washed and incubated with alkaline-phosphatase labeled goat anti-mouse antibodies (Cappel, Durham, N.C.) diluted 1:1000 in Assay Buffer. The unbound antibodies were removed by extensive washing and the bound antibodies were detected by addition of p-nitrophenylphosphate in recording the optical density at 410 nm.
as §3

Where [3] appears, read: Competitive ELISA, plates coated with BSA-AGE at 10 μg/ml.

SMILES strings stand for the structures.

With `N=C(N)NN` [aminoguanidine], the “levels of Hb-AGE at the end of the treatment period” value with Hb-AGE is “significantly decreased levels of Hb-AGE”. In addition, the “inhibition of formation of advanced glycosylation endproducts” value in assay [1] is reported as “identified as an inhibitor”.

Turning to `O=C(O)CCCCCNCC(=O)O` [ALT-927, disodium 6-(N-carboxymethylamino)caproate], the “Concentration of Antigen for 50% Inhibition of mAb BH4” value at monoclonal antibody BH4 (setting [3]) is listed as 5.7 pmol/well. In addition, the “recognition by monoclonal antibody BH4” value in the assay with monoclonal antibody BH4 (qualitative, ELISA) was “displayed recognition”. In addition, the “Concentration of Antigen for 50% Inhibition of mAb 2G6” value on monoclonal antibody 2G6 (setting [3]) is 21 pmol/well. Further, the “recognition by monoclonal antibody 2G6” value with monoclonal antibody 2G6 (qualitative, ELISA) is “displayed recognition”. Further, the “Concentration of Antigen for 50% Inhibition of mAb 4G9” value at monoclonal antibody 4G9 (setting [3]) was found to be 11 pmol/well. In the assay with monoclonal antibody 4G9 (qualitative, ELISA), the “recognition by monoclonal antibody 4G9” value is “displayed recognition”. Also, the “recognition by antibodies which recognize advanced glycosylation endproducts” value in assay [2] is given as “have been shown to recognize”.

The values above are taken from patent US5869527A, “6-(N-carboxymethylamino)caproate, salts thereof and methods of use therefor” (Alteon Inc., priority 1996, dated 1999).
